Results as given in PubChem BioAssay (NCI).
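Tested at 5 concentrations; 48 h exposure; 96-well plates; endpoints linearly interpolated, else capped at highest concentration. GI50: concentration for 50% inhibition of growth. Definition used: TGI = concentration required for complete inhibition of growth.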

Experiments:
Test in all cases: NCI tumour cell line growth inhibition, 48 h
[1] = test system: IGROV1 ovarian
[2] = test system: HOP-18 NSCLC
[3] = test system: P388/ADR leukemia
[4] = test system: SN12K1 renal
[5] = test system: XF 498 CNS
[6] = test system: KM20L2 colon
[7] = test system: DMS 114 small cell lung
[8] = test system: DLD-1 colon
[9] = test system: DMS 273 small cell lung
[10] = test system: M19-MEL melanoma
[11] = test system: SNB-78 CNS
[12] = test system: LXFL 529 NSCLC

N#Cc1c(N2CCN(c3ccc([N+](=O)[O-])cc3)CC2)[n+](=O)c2ccccc2n1[O-]
TGI [1]: > 100 µM

C=CCCCCCCCCC(=O)O
TGI [2]: 226 µM | TGI [3]: 264 µM | TGI [4]: 209 µM | TGI [5]: 30.9 µM | TGI [6]: 268 µM | TGI [7]: 389 µM | TGI [8]: 163 µM | TGI [1]: 287 µM | TGI [9]: 289 µM | TGI [10]: 449 µM | TGI [11]: 607 µM

N#Cc1ccc(C2NN=CC23C(=O)c2ccccc2OC3c2ccccc2)cc1 (centres undefined)
TGI [1]: > 100 µM

Clc1c2ccccc2nc2c1[nH]c1ccccc12
TGI [1]: > 100 µM

O=Nc1c(O)cc(Nc2cccnc2)c2ccccc12
TGI [1]: 49.9 µM

O=C1CC2SC(COCc3ccccc3)(CCN2Cc2ccccc2)C1 (centres undefined)
TGI [1]: > 100 µM

CC1CN=C(Nc2ccc(F)c(Cl)c2)S1 (centres undefined)
TGI [1]: > 100 µM

CN(CCCn1ccnc1[N+](=O)[O-])CCCn1ccnc1[N+](=O)[O-]
TGI [1]: > 100 µM

CCCC(=O)NC(Nc1ccc(S(=O)(=O)Nc2ccc(OC)nn2)cc1)(C(F)(F)F)C(F)(F)F
TGI [1]: > 100 µM

CCCNC(=O)N(C)C(=O)N1N=C(c2ccccc2)C1c1ccccc1 (centres undefined)
TGI [1]: > 100 µM

CCCCOC(=O)c1cc(C(=CCC[C@H]2CC[C@@]3(C)[C@@H](CC[C@@H]4[C@@H]3CC[C@]3(C)[C@@H](C(C)CCCC(C)C)CC[C@@H]43)C2)c2cc(Cl)c(O)c(C(=O)OCCCC)c2)cc(Cl)c1O (some centres undefined)
TGI [1]: > 50 µM

O=c1c2c(c1=O)-c1ccccc1CN2
TGI [5]: > 100 µM | TGI [6]: > 100 µM | TGI [7]: > 100 µM | TGI [12]: > 100 µM | TGI [8]: > 100 µM | TGI [1]: > 100 µM | TGI [9]: > 100 µM | TGI [10]: > 100 µM | TGI [11]: > 100 µM

Cc1ccc(-c2cc(-c3ccco3)c(C#N)c(=O)n2C2OC(CO)C(O)C(O)C2O)cc1 (centres undefined)
TGI [2]: > 100 µM | TGI [6]: > 100 µM | TGI [7]: > 100 µM | TGI [12]: > 100 µM | TGI [8]: > 100 µM | TGI [1]: > 100 µM | TGI [9]: > 100 µM | TGI [11]: > 100 µM

CC[C@H](C)[C@H](NC(=O)[C@@]1(O)[C@H](O)[C@]2(CC)C=CCN3CC[C@@]4(c5cc(Br)c(OC)cc5N(C)[C@@H]14)[C@@H]32)C(=O)OC
TGI [1]: > 100 µM

CC[C@@]1(CCC(=O)NCCc2c[nH]c3ccccc23)CCC(=O)N2CCc3c([nH]c4ccccc34)[C@H]21
TGI [1]: 30 µM

CC(=O)Nc1ccc(Sc2nnc(NC(C)=O)s2)cc1
TGI [1]: > 100 µM

COC(=O)C1=C(CCC[C@H](C)O[Si](C)(C)C(C)(C)C)NC(=O)N2[C@@H](CCO)CC[C@H]12
TGI [1]: 31.8 µM

COc1ccc(-c2cc(=O)c3c(O)cc(O)cc3o2)c(OC)c1OC
TGI [5]: > 100 µM | TGI [6]: > 100 µM | TGI [7]: > 100 µM | TGI [12]: > 100 µM | TGI [8]: > 100 µM | TGI [1]: > 100 µM | TGI [10]: > 100 µM

CCOC(=O)C1(Br)S(=O)(=O)OCCOS1(=O)=O
TGI [5]: > 100 µM | TGI [6]: > 100 µM | TGI [7]: > 100 µM | TGI [8]: > 100 µM | TGI [1]: > 100 µM | TGI [9]: > 100 µM | TGI [10]: > 100 µM | TGI [11]: > 100 µM

O=c1oc2ccc3ccccc3c2cc1-c1nc2ccc([N+](=O)[O-])cc2o1
TGI [1]: > 100 µM

COc1cccc(/C=C\c2ccc(O)cc2)c1
TGI [1]: > 100 µM

O=c1oc2ccc([N+](=O)[O-])cc2cc1Br
TGI [1]: > 100 µM

O=c1c([OH2+])c(-c2ccc(O)cc2[O-])oc2cc(O)cc([O-])c12.O=c1c([OH2+])c(-c2ccc(O)cc2[O-])oc2cc(O)cc([O-])c12.[Ti+4]
GI50 [2]: > 100 µM | TGI [2]: > 100 µM | GI50 [6]: > 100 µM | TGI [6]: > 100 µM | GI50 [7]: > 100 µM | TGI [7]: > 100 µM | GI50 [12]: > 100 µM | TGI [12]: > 100 µM | GI50 [8]: > 100 µM | TGI [8]: > 100 µM | TGI [1]: > 100 µM | GI50 [9]: > 100 µM | TGI [9]: > 100 µM | GI50 [10]: > 100 µM | TGI [10]: > 100 µM | GI50 [11]: > 100 µM | TGI [11]: > 100 µM

CSc1c(C#N)c(S)[nH]c(=O)c1C#N
TGI [1]: > 100 µM

O=c1c2cc(I)ccc2nc(-c2cccs2)n1/N=C/c1ccccc1
TGI [1]: > 100 µM

CCCCCCCCC/C=C1/CC(CO)(COC(=O)c2ccccc2)OC1=O (centres undefined)
TGI [1]: 29.6 µM

Cc1ccc(N2C(N)=C(C#N)C(C#N)(C#N)C2c2ccccc2)cc1 (centres undefined)
TGI [1]: 20.2 µM

CC1(C)C2CCC(O)(C2)C1N (centres undefined)
TGI [1]: > 100 µM

CCCNC(=O)N1CC(CN2CCN(c3ccccc3)CC2)O/C1=N/C(=O)Nc1ccccc1 (centres undefined)
TGI [1]: > 100 µM

COc1cc2c[n+](C)c3c4cc(OC)c(OC)cc4ccc3c2cc1OC
TGI [1]: 97.7 µM

CC(=O)OCC1OC(n2nc(Cc3ccccc3)c(=S)[nH]c2=S)C(OC(C)=O)C(OC(C)=O)C1OC(C)=O (centres undefined)
TGI [1]: 45.7 µM

O=C1c2ccccc2C(=O)N1CC(CN1C(=O)c2ccccc2C1=O)(C(=O)OCc1ccccc1)C(=O)OCc1ccccc1
TGI [1]: > 100 µM

c1ccc([P+](CCCCCC[P+](c2ccccc2)(c2ccccc2)c2ccccc2)(c2ccccc2)c2ccccc2)cc1
TGI [1]: 30.8 µM

Nc1nc(=S)n(-c2ccc(Cl)cc2)c2nc3ccccc3cc12
TGI [1]: > 100 µM

[N-]=[N+]=CC(=O)CCC(=O)N(c1ccccc1)c1ccccc1
TGI [1]: > 10 µM
